One block for each compound: values may come before it.
Columns and labels:
[1] = tested on: human PPARδ; conditions: mouse, in vivo
Description: FIG. 2(a) illustrates Western blot analyses of 10 μg of total protein extract of transgenic mice fed I3C or control diet in an experiment in which PPARδ expression was induced in mice harbouring CYP1A1-controlled PPARδ by oral administration of indole-3-carbinol (I3C) for seven days (top); and an experiment in which PPARδ was expressed by feeding of I3C and activated by additional administration of the specific PPARδ ligand GW-501516 (GW) for 25 days (bottom); FIG. 2(b) is a close-up photograph of the macroscopic phenotype of mice receiving both I3C and GW-501516 administration; FIG. 2(c) is a photograph of standard H&E histology stains prepared from abdominal skin of the animals shown in FIG. 2(a);
FIG. 3 illustrates experimental results from arising from the inducible expression of PPARδ in mouse epidermis. FIG. 3(a) Cis-regulatory elements in the rat CYP1A1 promoter used to drive inducible expression of human PPARδ. Upper panel: Map of the sebaceous-specific G/C-box element and the AHR-responsive DXE/XRE cluster in the cyp1A1 promoter as well as the human K5 promoter. Bottom panel: ClustalW alignment of promoters identified by a BLAST search using the 20 bp G/C element of the Cyp1A1 promoter. All of the genes shown were found in the top 10% percentile of all transcripts expressed in human sebaceous glands (GDS3215 at the NCBI GEO website www.ncbi.nlm.nih.gov/geo/). FIG. 3(b) illustrates immunohistochemistry using anti-PPARδ of mice transgenic for human PPARδ driven by the rat CYP1A promoter (PPARδ TG), as well as wild type mice. Magnification 200×; FIG. 3(c) illustrates immunohistochemistry of abdominal skin samples from PPARδ transgenic mice taken at the indicated times after initiation of PPARδ activation mediated by administration of the synthetic ligand GW501516 in the chow; FIG. 3(d) illustrates PPARδ immunohistochemistry 48 h after topical application of indole-3-carbinole (I3C) to the skin of PPARδ transgenic mice at 200× (left) and 400× (right) magnification; […]

[2] = tested on: unmodified mice; experiment: Control experiments in unmodified mice; format: in vivo, mouse; conditions: GW-501516 administered to unmodified mice
Description: The mice were prepared for the purposes of studies concerning a wide range of cancer phenotypes and liver fat accumulation.

[3] = tested on: PPARδ transgenic mice; experiment: Skin phenotype in PPARδ transgenic mice after PPARδ activation; format: in vivo, mouse
Description: FIG. 5. Skin phenotype in PPARδ transgenic mice twenty days after beginning of GW501516 (GW) administration. (FIGS. 5a-5c) Gross morphology, (FIGS. 5d-5e) H&E histology of control mice not treated with GW (5d), or fourteen days after induction (5e-5g). Magnification 200× (5d,5e) or 400× (5f). (5g) Immunostaining for Ki67 of skin from PPARδ transgenic mice maintained in the absence (left) or presence (right) of GW. Magnification 200×. (5h) Induction of skin disease by topical application of either 0.3% of indole-3-carbinole (I3C, left) or I3C plus 0.3% GW501516 once daily to shaved abdominal skin. Gross macroscopic phenotype (top) and H&E histology of treated skin (bottom) was documented 10 days after beginning of treatment; and
Mice were generated which are inducible to overexpress human PPARδ in the skin and a wide range of other tissues and organs, including the spleen, under the control of the CYP1A1 promoter. The CYP1A1 dioxin-responsive promoter was initially chosen because it is known to be transactivated by the aryl hydrocarbon receptor (AHR) upon binding of specific AHR agonist ligands. (Campbell et al., Regulation of the CYP1A1 promoter in transgenic mice: an exquisitely sensitive on-off system for cell specific gene regulation, J. Cell Science, 1996, 109 (Pt. 11), 2619-2625).
The mice were generated by cloning full-length human PPARδ downstream of the human CYP1A1 promoter. Plasmids encoding human PPARδ were prepared by the following protocol. The coding sequences of PPARδ, were amplified using primers PRMG15 (5′-[…]-3′) and PR MG3 (5′-[…]-3′), respectively (XbaI-sites underlined, ATG start codon in bold). The PCR products were cleaved with XbaI and cloned in plasmid pUHD10-3 (M. Gossen, unpublished, Genbank accession number U89931) creating pMGD7 (PPARδ). The integrity of the inserts were confirmed by sequencing and cleaved out using BamHI and ligated into plasmid pAHIR1-β-gal (Campbell, 1996} cleaved with BglII, resulting in the plasmid pMGD72 (PPARδ). The proper orientations of the inserts were confirmed by restriction endonuclease analysis and sequencing. Transgenic mice were generated by microinjection of the expression unit (NotI fragment) of the plasmid pMGD72 into pro-nuclei of C57BL/J6×CBA F1 fertilized eggs. Mice were maintained under standard animal house conditions.
In a first study, indole-3-carbinole (I3C) introduced into the chow at a final concentration of 0.5% (w/w), for one week, was used to induce expression of PPARδ. The resulting translated protein was conformationally activated by the specific PPARδ ligand GW-501516 (2-Methyl-4-((4-methyl-2-(4-trifluoromethylphenyl)-1,3-thiazol-5-yl)-methylsulfanyl)phenoxy-acetic acid), added in powdered form to the chow at a concentration of 0.003% (w/w) for an additional 16 days. This activation mechanism is illustrated in FIG. 1. Thus, PPARδ can be transcriptionally activated and conformationally activated by concurrent feeding with I3C and GW-501516.

[4] = cited from earlier work

Structure (SMILES): Cc1cc(SCc2sc(-c3ccc(C(F)(F)F)cc3)nc2C)ccc1OCC(=O)O [GW-501516, 2-Methyl-4-((4-methyl-2-(4-trifluoromethylphenyl)-1,3-thiazol-5-yl)-methylsulfanyl)phenoxy-acetic acid]
PPARδ expression in the epidermis [1]: strong expression of PPARδ in the epidermis
psoriatic symptoms [2]: no psoriatic symptoms were observed
skin phenotype (scaling, erythema, skin thickening) ([3]; GW501516 alone, without I3C, as early as seven days after initiation): scaling, erythema formation, and skin thickening was notable in all PPARδ transgenic mice
skin phenotype (scaling, skin thickening, inflammation) ([3]; PPARδ induced by I3C feeding (0.5% w/w chow), activated by GW-501516 0.003% w/w in chow, after 25 days): a dramatic skin phenotype was observed
skin phenotype ([3]; topical I3C plus additional topical GW501516 (0.3% each, once daily, 10 days)): effectively replicated

Structure (SMILES): COC(=O)c1sccc1S(=O)(=O)Nc1ccc(Nc2ccccc2)cc1OC [GSK 0660, methyl 3-({[2-(methoxy)-4-phenyl]amino}sulfonyl)-2-thiophenecarboxylate]
in vivo bioavailability [4]: lacks in vivo bioavailability

PPARδ expression in skin [1]: inducible
PPARδ expression in skin and lymph nodes [1]: strong induction of PPARδ expression
Structure (SMILES): OCc1c[nH]c2ccccc12 [I3C, indole-3-carbinole]
skin changes ([3]; prolonged chow with I3C 0.5% w/w, in the absence of PPARδ activation): caused no skin changes
skin phenotype ([3]; topical I3C alone to the skin): unable to elicit a phenotype
